Results as given in PubChem BioAssay (NCI).
Where “and” joins values, the source holds several entries; their conditions need not be identical. Equal values may be shown once.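 Grown in 96-well plates, cells were treated for 48 hours with each compound at five concentrations. Insufficient inhibition: endpoint recorded as highest concentration tested. GI50 marks 50% less growth. TGI denotes the concentration required for complete inhibition of growth.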

Assays:
Assay in all cases: growth of human tumour cells (NCI), 48 h
SW-620 colon = tested on: SW-620 colon
A498 renal = tested on: A498 renal
KM12 colon = tested on: KM12 colon
SR leukemia = tested on: SR leukemia
UACC-62 melanoma = tested on: UACC-62 melanoma
MDA-MB-435 = tested on: MDA-MB-435
U251 CNS = tested on: U251 CNS
PC-3 prostate = tested on: PC-3 prostate
OVCAR-3 ovarian = tested on: OVCAR-3 ovarian
NCI/ADR-RES ovarian = tested on: NCI/ADR-RES ovarian

SMILES | GI50 (SW-620 colon) | TGI (SW-620 colon) | GI50 (A498 renal) | TGI (A498 renal) | GI50 (KM12 colon) | TGI (KM12 colon) | GI50 (SR leukemia) | TGI (SR leukemia) | GI50 (UACC-62 melanoma) | TGI (UACC-62 melanoma) | GI50 (MDA-MB-435) | TGI (MDA-MB-435) | GI50 (U251 CNS) | TGI (U251 CNS) | GI50 (PC-3 prostate) | TGI (PC-3 prostate) | GI50 (OVCAR-3 ovarian) | TGI (OVCAR-3 ovarian) | GI50 (NCI/ADR-RES ovarian) | TGI (NCI/ADR-RES ovarian)
CC[N+](CC)=c1ccc2nc3c(cc(NCc4ccccc4)c4ccccc43)oc-2c1 | 0.302 µM | 1.4 µM | 0.751 µM | 4.62 µM | 0.292 µM | 1.32 µM | 0.27 µM | 0.999 µM | 0.944 µM | 2.52 µM | 0.18 µM | 0.352 µM | 0.196 µM | 0.962 µM | 0.264 µM | 1.63 µM | 0.0951 µM | 0.557 µM | 0.227 µM | 1.76 µM
NC(=O)c1[nH]nc(C2OC(CO)C(O)C2O)c1O (stereo not given) |  | 2050 µM |  | 444 µM |  | 2980 µM |  | > 232 µM |  | 579 µM |  | 469 µM |  | 4010 µM |  | 794 µM |  | 424 µM |  | 105 µM
Cc1cc(S(=O)(=O)Nc2nc3ccsc3c(=O)n2Cc2ccco2)c(S)cc1Cl | > 100 µM | > 100 µM | > 100 µM | > 100 µM | > 100 µM | > 100 µM | 9.95 µM | 29.7 µM | 53.1 µM | > 100 µM | > 100 µM | > 100 µM | 96.3 µM | > 100 µM | > 100 µM | > 100 µM | > 100 µM | > 100 µM | > 100 µM | > 100 µM
COc1cc2cc(Oc3ccc(NC(=O)Nc4ccccc4)cc3)c(C)nc2cc1OCCN1CCCCC1 | 6.09 µM | 11.9 µM | 4.75 µM | 9.3 µM | 6.8 µM | 14.3 µM | 0.934 µM | 2.66 µM | 5.89 µM | 11 µM | 5.55 µM | 10.1 µM | 5.32 µM | 11.4 µM | 4.49 µM | 9.83 µM | 6.31 µM | 13.3 µM | 6.54 µM | 14.5 µM
O=C1C=CC(=O)C1(Br)Br |  | 27.9 µM |  | 27.4 µM |  | 29.4 µM |  | 29.5 µM |  | 25.3 µM |  | 29.8 µM |  | 29.1 µM |  | 33.1 µM |  | 31.4 µM |  | 68.3 µM
CN(C)CCNC(=O)c1cccc2cc3ccccc3nc12 | 0.775 µM | 3.17 µM | 1.26 µM | 2.8 µM | 2.07 µM | 10.2 µM | 0.338 µM | 8.1 µM | 1.42 µM | 3.25 µM | 1.86 µM | 6.67 µM | 1.02 µM | 4.91 µM | 2.33 µM | 10.8 µM | 1.36 µM | 4.22 µM | 1.55 µM | 5.83 µM
CS(=O)(=O)N1CCN(Cc2cc3nc(-c4cccc5[nH]ncc45)nc(N4CCOCC4)c3s2)CC1 (tested in a mixture with another compound) | 0.824 µM | > 100 µM | 0.136 µM | 0.774 µM | 0.0826 µM | 0.415 µM | 0.194 µM |  | 0.105 µM | 0.706 µM | 0.0425 µM | 0.211 µM | 0.213 µM |  | 0.0823 µM |  | 0.0615 µM | 0.586 µM | 0.284 µM | 
Cc1ccc(N=C2CSc3nnc(-c4csc5c4CCCC5)n3N2)cc1 | 0.204 µM | > 50 µM | 0.0988 µM | 0.412 µM | 0.226 µM | > 50 µM | 0.179 µM | > 50 µM | 0.277 µM | > 50 µM | 0.0894 µM | 0.237 µM | 0.2 µM | > 50 µM | 0.27 µM | > 50 µM | 0.162 µM | 7.75 µM | 0.167 µM | > 50 µM
COc1c2ccccc2c(O)c2c(=O)c(C(=O)O)cn(C)c12 | > 100 µM | > 100 µM | 18.8 µM | > 100 µM | > 100 µM | > 100 µM | > 100 µM | > 100 µM | 24.7 µM | > 100 µM | > 100 µM | > 100 µM | > 100 µM | > 100 µM | > 100 µM | > 100 µM | > 100 µM | > 100 µM | > 100 µM | > 100 µM
CC(CN)[C@@H]1CC[C@]2(CO)CC[C@]3(C)[C@H](CC[C@@H]4[C@@]5(C)CCC(NCCO)C(C)(C)[C@@H]5CC[C@]43C)[C@@H]12 (stereo not given in full) | 1.71 µM | 3.26 µM | 11 µM | 23.5 µM | 1.9 µM | 4.14 µM | 1.94 µM | 4.95 µM | 1.8 µM | 3.37 µM | 1.7 µM | 3.14 µM | 1.6 µM | 2.95 µM | 2.53 µM | 11.4 µM | 2.1 µM | 4.6 µM | 6.83 µM | 22.2 µM
Nc1nc2ccc([C@@H]3Nc4ccc5[nH]ncc5c4[C@H]4[C@H]5CCC(C5)[C@H]43)cc2s1 | 0.474 µM | 1.87 µM | 0.288 µM | 1.78 µM | 0.838 µM | 2.3 µM | 0.336 µM | 2.72 µM | 1.51 µM | 3.05 µM | 0.293 µM | 1.03 µM | 1.18 µM | 11.5 µM | 1.04 µM | 3.2 µM | 0.366 µM | 1.25 µM | 0.966 µM | 4 µM
COC(=O)c1ccc(=O)c2nc3/c(=C/O)c(O)cc(=O)c3[nH]c12 | 1.21 µM | > 60.4 µM and 18.9 µM |  | 30.8 µM and 17.4 µM | 1.6 µM | 20.1 µM and 18.1 µM | 0.361 µM | > 64.9 µM | 1.01 µM | 7.26 µM and 7.01 µM | 0.559 µM | 23.7 µM and 13.2 µM | 0.176 µM | 28.6 µM and 12.3 µM | 0.525 µM | 17.1 µM and 16.6 µM | 1.04 µM | 25.7 µM and 15 µM | 0.379 µM | > 33.6 µM and 13.8 µM
Cn1ccc(=Nc2ccc(NC(=O)c3ccc(N=c4ccn(C)c5ccc([N+](=O)[O-])cc45)cc3)cc2)cc1 | 8.6 µM | > 100 µM | > 100 µM | > 100 µM | 7.26 µM | > 100 µM | 33 µM | > 100 µM | 17.8 µM | > 100 µM | 6.53 µM | > 100 µM | 0.437 µM | > 100 µM | 9.2 µM | > 100 µM | 15.2 µM | 78.7 µM | > 100 µM | > 100 µM
COc1cccc(/C=C/C(=O)c2ccc(Cl)cc2Cl)c1OC | 2.98 µM | 9.12 µM | 16.2 µM | 30.5 µM | 2.74 µM | 13.1 µM | 2.28 µM | 9.67 µM | 10.6 µM | 24 µM | 5.51 µM | 18.7 µM | 6.19 µM | 18.7 µM | 4.32 µM | 17.1 µM | 7.38 µM | 19.7 µM | 11.1 µM | 25.2 µM
COc1ccc(-c2cnc(-c3ccc(F)cc3)[nH]2)cc1 | 1.91 µM | 3.99 µM | 2.2 µM | 6.17 µM | 1.7 µM | 3.27 µM | 2.41 µM | 6.27 µM | 19.4 µM | > 50 µM | 1.96 µM | 5.27 µM | 6.3 µM | 17.2 µM | 10.8 µM | 68.4 µM | 1.64 µM | 3.65 µM | 28.6 µM | > 100 µM
O=C(Oc1ccc([N+](=O)[O-])cc1)N1CCN(Cc2cccc(Oc3ccccc3)c2)CC1 | > 100 µM | > 100 µM | > 47.6 µM | > 100 µM | 62.5 µM | > 100 µM | 22.5 µM | > 100 µM | 13.6 µM | > 100 µM | > 100 µM | > 100 µM | > 100 µM | > 100 µM | > 69.6 µM | > 100 µM | > 96.2 µM | > 100 µM | > 100 µM | > 100 µM
COc1cc(NN=C(c2ccc(O)cc2)c2ccc(O)cc2)c([N+](=O)[O-])cc1[N+](=O)[O-] | 15.2 µM | 33.6 µM | 13.2 µM | 35.2 µM | 4.86 µM | 25.7 µM | 10.9 µM | > 100 µM | 10.6 µM | 22.6 µM | 10.4 µM | 22.6 µM | 7.79 µM | 20.6 µM | 14.6 µM | > 100 µM | 1.21 µM | 14.8 µM | 13.1 µM | 51.5 µM
COc1ccc2cc(C(=O)/C=C/c3cccc(Cl)c3Cl)ccc2c1 | 1.32 µM | > 100 µM | 18.1 µM | 32.1 µM | 8.08 µM | 64.3 µM | 0.806 µM | > 100 µM | 4.08 µM | 28.4 µM | 1.44 µM | 29.6 µM | 6.19 µM | 65.3 µM | 12.4 µM | > 81.9 µM | 7.87 µM | 30.1 µM | 12.7 µM | > 100 µM
CCOC(=O)/C=C1\SC(=Nc2ccc(C#N)cc2)N(CCN2C(=O)/C(=C/C(=O)OCC)SC2=Nc2ccc(C#N)cc2)C1=O | 0.416 µM | 2.63 µM | 6.82 µM | 20.5 µM | 1.17 µM | 5.48 µM | 0.303 µM | > 100 µM | 3.25 µM | 17.9 µM | 3.21 µM | 16 µM | 0.554 µM | 1.94 µM | 1.28 µM | 13.4 µM | 0.795 µM | 3.27 µM | 3.21 µM | 42.3 µM
